Data on 8 compounds can be found in PubChem BioAssay (NCI).

Values joined by “and” are separate entries in the source; they are usually repeats but may differ in a detail not shown here. Equal values may be shown once.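 1) Cells in 96-well plates. 2) Compound, 48 h, 5 concentrations. 3) Linear interpolation between surrounding doses. 4) Unreached endpoint = highest concentration. GI50 = concentration required for 50% inhibition of growth. TGI is the concentration that stops growth completely.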

Among the test systems are HL-60(TB) leukemia; M14 melanoma; DU-145 prostate; SW-620 colon; OVCAR-5 ovarian; RPMI-8226 leukemia; HT29 colon; A549 NSCLC; SF-268 CNS; ACHN renal.
What all share (assay): DTP human tumour cell line panel, 48 h

Take `CN(C)CCCSc1ccccc1NC1=C(Cl)C(=O)C(Nc2ccccc2SCCCN(C)C)=C(Cl)C1=O`: the GI50 – broadly, the concentration giving 50% growth inhibition – was 0.69 µM in the assay with HL-60(TB) leukemia; 1.74 µM in the assay on M14 melanoma; 1.76 µM with DU-145 prostate; 2.17 µM with SW-620 colon; 1.78 µM in the assay on OVCAR-5 ovarian; 2.35 µM in the assay on RPMI-8226 leukemia. Also, the GI50 in the assay with HT29 colon was 2.13 µM; in the assay with A549 NSCLC it was 5.43 µM; in the assay on SF-268 CNS it was 1.93 µM. For the same compound, the TGI – broadly, the concentration giving total growth inhibition – in the assay with HL-60(TB) leukemia worked out at 2.91 µM; in the assay on M14 melanoma it was 3.72 µM; with DU-145 prostate, 3.23 µM; in the assay with SW-620 colon, 4.38 µM; in the assay on OVCAR-5 ovarian it was 3.29 µM; in the assay with RPMI-8226 leukemia it was 5.62 µM. Besides, the total growth inhibition concentration (TGI) worked out at 4.16 µM in the assay with HT29 colon, 17 µM in the assay on A549 NSCLC and 4.48 µM in the assay on SF-268 CNS.
As to `O=c1c2ccccc2c(/C=N\NC2=NCCN2)c2oc3ccccc3n12`, the GI50 was 14.2 µM with ACHN renal; 25.3 µM in the assay on HL-60(TB) leukemia; 34.4 µM with M14 melanoma; 15 µM with DU-145 prostate; 22.1 µM in the assay on SW-620 colon; 19.8 µM in the assay with OVCAR-5 ovarian. For the same compound, the GI50 in the assay with RPMI-8226 leukemia is 28.6 µM; in the assay on HT29 colon, 20.7 µM; in the assay on A549 NSCLC, 16.4 µM; in the assay on SF-268 CNS it was 57.8 µM. Besides, the TGI in the assay with ACHN renal is 29.9 µM; with HL-60(TB) leukemia it was 92.6 µM; with M14 melanoma, greater than 100 µM; with DU-145 prostate, 34.7 µM; in the assay with SW-620 colon, 74 µM; in the assay on OVCAR-5 ovarian, 37.1 µM. The total growth inhibition concentration (TGI) with RPMI-8226 leukemia was greater than 100 µM; in the assay with HT29 colon, greater than 100 µM; in the assay with A549 NSCLC, 60.3 µM; in the assay on SF-268 CNS, greater than 100 µM.
For the compound `N#Cc1c(NC(=O)c2ccc(F)cc2)sc2c1CCCC2`, the GI50 in the assay on ACHN renal, in the assay on HL-60(TB) leukemia, with M14 melanoma, in the assay with DU-145 prostate, in the assay with SW-620 colon and in the assay with OVCAR-5 ovarian was greater than 25 µM throughout. For the same compound, the GI50 in the assay with RPMI-8226 leukemia, with HT29 colon, in the assay on A549 NSCLC and in the assay on SF-268 CNS was greater than 25 µM each time. Further, the TGI with ACHN renal, with HL-60(TB) leukemia, with M14 melanoma, in the assay on DU-145 prostate, with SW-620 colon and in the assay on OVCAR-5 ovarian was greater than 25 µM each time. Besides, the concentration for total growth inhibition (TGI) with RPMI-8226 leukemia, in the assay with HT29 colon, in the assay with A549 NSCLC and in the assay on SF-268 CNS was greater than 25 µM each time.
Take `COCCOC1=CC(=O)c2c(O)ccc(O)c2C1=O`: the GI50 in the assay with ACHN renal was 1.63 µM; in the assay with HL-60(TB) leukemia it was 0.305 µM; in the assay on M14 melanoma it was 0.818 µM; in the assay on DU-145 prostate, 0.5 µM; in the assay on SW-620 colon, 1.32 µM; in the assay with OVCAR-5 ovarian it was 1.92 µM. Moreover, the GI50 is 2.03 µM in the assay with RPMI-8226 leukemia, 0.995 µM with HT29 colon, 1.74 µM with A549 NSCLC and 3.29 µM in the assay on SF-268 CNS. Moreover, the TGI with ACHN renal was 3.41 µM and 3.14 µM; in the assay on HL-60(TB) leukemia it was 2.26 µM and 1.04 µM; with M14 melanoma, 0.353 µM and 2.16 µM; in the assay with DU-145 prostate, 2.12 µM and 1.62 µM; with SW-620 colon, 6.55 µM and 3.18 µM; with OVCAR-5 ovarian it was 2.96 µM and 3.46 µM. For the same compound, the TGI in the assay on RPMI-8226 leukemia was 8.86 µM and 5.06 µM; in the assay on HT29 colon, 2.05 µM and 2.64 µM; in the assay with A549 NSCLC, 4.15 µM and 3.78 µM; with SF-268 CNS, 3.54 µM and 10.9 µM.
For `C#CC(=O)Nc1cccc2c1cc(C)n2-c1nc2c(c(NCc3ccccc3)n1)CCCC2`, the GI50 with ACHN renal was 0.273 µM; in the assay with M14 melanoma it was 0.303 µM; with DU-145 prostate, 1.18 µM; with SW-620 colon it was 0.2 µM; in the assay with OVCAR-5 ovarian, 0.279 µM; in the assay on HT29 colon, 0.0543 µM. For the same compound, the GI50 with A549 NSCLC was 1.97 µM; with SF-268 CNS it was 0.199 µM. In addition, the TGI in the assay with ACHN renal worked out at 0.786 µM; in the assay on M14 melanoma, 1.13 µM; in the assay with DU-145 prostate, 2.54 µM; in the assay with SW-620 colon it was 0.461 µM; with OVCAR-5 ovarian, 0.977 µM; in the assay on HT29 colon, 0.121 µM. In addition, the concentration for total growth inhibition (TGI) in the assay on A549 NSCLC is 4.1 µM; with SF-268 CNS, 0.438 µM.
For the compound `N#CC1=C(N)NC(=S)NC12Nc1ccccc1S2` (stereo not drawn), the GI50 with ACHN renal was 21.8 µM; in the assay on HL-60(TB) leukemia, 33.6 µM; in the assay on M14 melanoma, 40.1 µM; in the assay on DU-145 prostate it was 17.2 µM; in the assay with SW-620 colon, 36.7 µM; in the assay with OVCAR-5 ovarian, 75.7 µM. Moreover, the GI50 in the assay with RPMI-8226 leukemia is 22.2 µM; in the assay on HT29 colon, 31 µM; in the assay with A549 NSCLC, 37.7 µM. Also, the concentration for total growth inhibition (TGI) with ACHN renal was 74.3 µM; in the assay with HL-60(TB) leukemia, 79.2 µM; in the assay with M14 melanoma it was greater than 100 µM; in the assay on DU-145 prostate it was greater than 100 µM; with SW-620 colon, greater than 100 µM; in the assay on OVCAR-5 ovarian, greater than 100 µM. Further, the TGI in the assay with RPMI-8226 leukemia, in the assay with HT29 colon and in the assay with A549 NSCLC was greater than 100 µM each time.
`O=Nc1c(-c2c(O)[nH]c3cc(Br)ccc23)[nH]c2ccccc12`: the GI50 in the assay on ACHN renal was 0.519 µM; in the assay on HL-60(TB) leukemia it was 2.75 µM; in the assay with M14 melanoma it was 1.76 µM; with DU-145 prostate, 1.23 µM; in the assay on OVCAR-5 ovarian it was 2.25 µM; with RPMI-8226 leukemia, 2.04 µM. Moreover, the GI50 in the assay on HT29 colon is 1.67 µM; with A549 NSCLC it was 1.06 µM; with SF-268 CNS, 1.52 µM. In addition, the concentration for total growth inhibition (TGI) in the assay on ACHN renal was 1.91 µM; in the assay on HL-60(TB) leukemia it was greater than 32.3 µM; in the assay with M14 melanoma it was 3.48 µM; in the assay with DU-145 prostate, 2.56 µM; in the assay with OVCAR-5 ovarian it was 4.35 µM; with RPMI-8226 leukemia it was greater than 22.5 µM. Further, the results for the total growth inhibition concentration (TGI) in the assay on HT29 colon, in the assay with A549 NSCLC and in the assay with SF-268 CNS were 3.44 µM, 4.89 µM and 3.66 µM, respectively.
Turning to `COc1cc(-c2nc3sc(C)cn3c2/C=C2\C(=O)Nc3ccccc32)c(Br)c(OC)c1OC`, the GI50 in the assay with ACHN renal is 32.1 µM; in the assay on HL-60(TB) leukemia it was 29.2 µM; in the assay with M14 melanoma, 29.1 µM; in the assay with DU-145 prostate, 28.5 µM; with SW-620 colon, 30.6 µM; with OVCAR-5 ovarian it was 55.9 µM. Further, the GI50 in the assay with HT29 colon was 26.9 µM; in the assay with A549 NSCLC it was 44 µM; with SF-268 CNS, 44.7 µM. The TGI was greater than 100 µM with ACHN renal; greater than 100 µM in the assay on HL-60(TB) leukemia; greater than 100 µM with M14 melanoma; 72.4 µM with DU-145 prostate; greater than 100 µM in the assay on SW-620 colon; greater than 100 µM in the assay on OVCAR-5 ovarian. The figures for the concentration for total growth inhibition (TGI) in the assay on HT29 colon, in the assay on A549 NSCLC and in the assay on SF-268 CNS were 55.5 µM, greater than 100 µM and greater than 100 µM, respectively.
